Literature values in Sander's compilation of Henry's law constants.
Where “and” joins values, the source holds several entries; their conditions need not be identical. Equal entries are not always repeated.

Legend:
[1] = Henry solubility constant Hcp at 295 K (mol/(m3 Pa)); details: reference: Lee and Zhou (1993); cited value
[2] = Henry solubility constant Hcp at 293 K (mol/(m3 Pa)); details: cited value
[3] = Henry solubility constant Hcp at 298.15 K (mol/(m3 Pa)); details: cited value
[4] = Henry solubility constant Hcp at 277 K (mol/(m3 Pa)); details: reference: Roth (1942); cited value
[5] = Henry solubility constant Hcp at 310 K (mol/(m3 Pa)); details: cited value
[6] = Henry solubility constant Hcp at 311 K (mol/(m3 Pa)); details: reference: Orcutt and Seevers (1937b); cited value
[7] = reference: Burkholder et al. (2015)
[8] = reference: Burkholder et al. (2019)
[9] = reference: Sander et al. (2006)
[10] = reference: Sander et al. (2011)
[11] = reference: Nicholson et al. (1984)
[12] = reference: Fogg and Sangster (2003)

CC(=O)CO [1-hydroxypropanone]
Henry solubility constant Hcp at 295 K [1]: 77

O=CCO [2-hydroxyethanal]
Henry solubility constant Hcp at 295 K [1]: 990

BrBr [bromine (molecular)]
Henry solubility constant Hcp at 293 K ([2]; reference: Giona et al. (1969)): 0.0092
Henry solubility constant Hcp [3, 7]: 0.0072
Henry solubility constant Hcp [3, 8]: 0.0072
Henry solubility constant Hcp ([3]; reference: Jenkins and King (1965)): 0.0079
Henry solubility constant Hcp [3, 9]: 0.0072
Henry solubility constant Hcp [3, 10]: 0.0072

ClC(Cl)Br [bromodichloromethane]
Henry solubility constant Hcp at 293 K [2, 11]: 0.0047
Henry solubility constant Hcp [3, 7]: 0.004
Henry solubility constant Hcp [3, 8]: 0.004
Henry solubility constant Hcp [3, 12]: 0.0048
Henry solubility constant Hcp ([3]; reference: Goldstein (1982)): 0.0046
Henry solubility constant Hcp [3, 11]: 0.0043
Henry solubility constant Hcp [3, 9]: 0.004
Henry solubility constant Hcp [3, 10]: 0.004

O=C=O [carbon dioxide]
Henry solubility constant Hcp at 293 K ([2]; reference: Nunn (1958)): 0.00039
Henry solubility constant Hcp [3, 7]: 0.00034
Henry solubility constant Hcp [3, 8]: 0.00034
Henry solubility constant Hcp ([3]; reference: Carroll et al. (1991)): 0.00034
Henry solubility constant Hcp ([3]; reference: Chen et al. (1979)): 0.00034
Henry solubility constant Hcp ([3]; reference: Crovetto (1991)): 0.00034
Henry solubility constant Hcp ([3]; reference: Edwards et al. (1978)): 0.00034
Henry solubility constant Hcp ([3]; reference: Lelieveld and Crutzen (1991)): 0.00034
Henry solubility constant Hcp ([3]; reference: Pandis and Seinfeld (1989)): 0.00034
Henry solubility constant Hcp ([3]; reference: Perry and Chilton (1973)): 0.00034
Henry solubility constant Hcp [3, 9]: 0.00033
Henry solubility constant Hcp [3, 10]: 0.00033
Henry solubility constant Hcp ([3]; reference: Weiss (1974)): 0.00034
Henry solubility constant Hcp ([3]; reference: Yoo et al. (1986)): 0.00034

ClC(Br)Br [dibromochloromethane]
Henry solubility constant Hcp at 293 K [2, 11]: 0.011
Henry solubility constant Hcp [3, 7]: 0.0086
Henry solubility constant Hcp [3, 8]: 0.0086
Henry solubility constant Hcp [3, 12]: 0.0087
Henry solubility constant Hcp ([3]; reference: Goldstein (1982)): 0.012
Henry solubility constant Hcp [3, 11]: 0.012
Henry solubility constant Hcp [3, 9]: 0.0086
Henry solubility constant Hcp [3, 10]: 0.0086

ClOCl [dichlorine monoxide]
Henry solubility constant Hcp at 277 K [4]: 0.07
Henry solubility constant Hcp [3]: 0.034 and 0.076

CSC [dimethyl sulfide]
Henry solubility constant Hcp at 293 K ([2]; reference: Vitenberg et al. (1975)): 0.007
Henry solubility constant Hcp ([3]; reference: Brockbank (2013)): 0.0054
Henry solubility constant Hcp [3, 7]: 0.0053
Henry solubility constant Hcp [3, 8]: 0.0053
Henry solubility constant Hcp [3, 12]: 0.0052
Henry solubility constant Hcp ([3]; reference: Gaffney and Senum (1984)): 0.0061
Henry solubility constant Hcp [3, 9]: 0.0053
Henry solubility constant Hcp [3, 10]: 0.0053

[N-]=[N+]=O [dinitrogen monoxide]
Henry solubility constant Hcp at 293 K ([2]; reference: Macintosh et al. (1958)): 0.0003
Henry solubility constant Hcp at 293 K ([2]; reference: Nunn (1958)): 0.00028
Henry solubility constant Hcp at 310 K ([5]; reference: Harris (1951)): 0.00017
Henry solubility constant Hcp [3, 7]: 0.00024
Henry solubility constant Hcp [3, 8]: 0.00024
Henry solubility constant Hcp ([3]; reference: Gordon (1895)): 0.00026
Henry solubility constant Hcp [3, 9]: 0.00024
Henry solubility constant Hcp [3, 10]: 0.00024
Henry solubility constant Hcp ([3]; reference: Young (1981b)): 0.00024
Henry solubility constant Hcp at 311 K [6]: 0.00017

CCCC(=O)OCC [ethyl butanoate]
Henry solubility constant Hcp at 310 K ([5]; reference: Nahon et al. (2000)): 0.027
Henry solubility constant Hcp ([3]; reference: Brockbank (2013)): 0.025

CCOC(C)=O [ethyl ethanoate]
Henry solubility constant Hcp at 310 K ([5]; reference: Nahon et al. (2000)): 0.039
Henry solubility constant Hcp ([3]; reference: Brockbank (2013)): 0.065
Henry solubility constant Hcp [3, 7]: 0.059
Henry solubility constant Hcp [3, 8]: 0.065
Henry solubility constant Hcp [3, 10]: 0.059
